The molecules below were run on P. falciparum 3D7 in RBCs, SYBR Green DNA fluorescence (assay: antimalarial activity against intraerythrocytic 3D7 parasites – 3D7 strain, red blood cells, SYBR Green, cherry-picked, dose response (AID 652047)).
`CC1(C)C2CCC1(C)C(OC(=O)c1ccc(O)cc1)C2` (stereo unspecified) gave an AC35 of 12.2 µM.
In the case of `Cc1ccc(Cl)cc1NC1=C/C(=N\S(=O)(=O)c2cccs2)c2ccccc2C1=O`, the AC35 is reported as 0.0436 µM.
`Cc1ccccc1C(=O)NNC(=S)NC(=O)c1ccc(Cl)cc1Cl` gave an AC35 of 41.1 µM.
Molecule `CCCS(=O)(=O)c1c(S(=O)(=O)CCC)c2c(C)cccn2c1C(=O)N/N=C/c1cc(O)cc(O)c1` has an AC35 of 8.14 µM.
In the case of `CC[n+]1c(/C=C/C=C/c2ccc(N(C)C)cc2)sc2ccccc21`, the AC35 is reported as 6.28 µM.
For `CCCCCCC(Cl)(Cn1ccnc1)c1ccccc1` (stereo unspecified), the AC35 was 4.06 µM.
`CCc1ccc(CN(C)C(=O)c2cc(COc3cccc(C(F)(F)F)c3)on2)nc1` gave an AC35 of 24.6 µM.
For `CN(Cc1ccc(Cl)s1)C(=O)CCl`, the AC35 was 1.69 µM.
Molecule `O=C(COc1ccccc1F)Nc1nc(-c2ccccn2)cs1` has an AC35 of 10.5 µM.
With `C[C@@]12CCC3[C@@](CCC4[C@@]3(C)CCC[C@@]4(C)C(=O)NCc3ccccc3)(CC1=O)C2` (stereo partly specified) the AC35 was 30.2 µM.
`Cc1ccsc1/C=C/c1ccc2cccc(O)c2n1` was tested, and the AC35 was 14.2 µM.
Work on `CC1=CC(C)(C)N(S(=O)(=O)c2ccc(C)cc2)c2ccc(C)cc21` yielded an AC35 of 22.3 µM.
In the case of `COc1cnc(-c2ccccn2)nc1Sc1ccccc1`, the AC35 is reported as 4.67 µM.
`COc1cc([N+](=O)[O-])cc(/C=N/NC(=O)c2cncc(Br)c2)c1O` gave an AC35 of 11.7 µM.
`Cc1ccc(S(=O)(=O)Nc2ccc(O)c3cccnc23)cc1` showed an AC35 of 7.02 µM.
`O=S(=O)(c1ccc(Cl)cc1)N1CCC2(CC1)OCCN2S(=O)(=O)c1cccs1` showed an AC35 of 24.8 µM.
`CCC1=NN(C(=O)c2cccc(Br)c2)C(O)(c2ccc(Br)cc2)C1` (stereo unspecified) gave an AC35 of 14.7 µM.
With `CCOC(=O)c1cc2c(=Cc3ccc(N(C)C)cc3)c3ccccc3n2[n+]1C` the AC35 was 1.94 µM.
Molecule `CC(=O)C1=C(c2ccc(Br)cc2)C(=O)c2ccccc2C1=O` has an AC35 of 0.82 µM.
`Cc1cc(Cl)ccc1C(=O)C1CCCN(C(=O)c2cncs2)C1` (stereo unspecified) gave an AC35 of 26 µM.
For `Cc1ccc(NC2(c3nnnn3-c3c(C)cccc3C)CCCCC2)cc1`, the AC35 was 15.7 µM.
With `CCCOc1ccc(S(=O)(=O)n2cc(F)c(=O)[nH]c2=O)cc1` the AC35 was 30.4 µM.
`CCCCCCCc1ccc(-c2ccc(O)cc2)nc1` was tested, and the AC35 was 7.43 µM.
`C=C(C)COc1ccc(-c2[nH]ncc2-c2ccc(Br)cc2)c(O)c1` showed an AC35 of 3.55 µM.
Work on `CC(=O)C1=C(c2cccc([N+](=O)[O-])c2)N(C(C)=O)n2c(C)nnc2S1` yielded an AC35 of 0.836 µM.
Work on `Cc1nc(-c2ccccn2)nc(N(C)c2ccccc2)c1Cl` yielded an AC35 of 3.26 µM.
In the case of `O=C(CN1CC[n+]2c(-c3cccs3)csc21)c1ccc(-c2ccccc2)cc1`, the AC35 is reported as 2.39 µM.
Work on `NC(=O)N=Nc1c2[nH]c3ccccc3nc-2c2ccccc12` yielded an AC35 of 10.7 µM.
With `COc1cnc(-c2ccccn2)nc1N(C)c1ccccc1` the AC35 was 0.962 µM.
Work on `CN(C)c1ccc(C=c2c3ccccc3n3c2c2c([n+]3C)CCCC2)cc1` yielded an AC35 of 0.15 µM.
Work on `C=C1C(=O)C23CCC4C(C)(C(=O)OC)CCCC4(C)C2CCC1(O)C3` (stereo unspecified) yielded an AC35 of 1.99 µM.
For `Cc1ccc(Nc2cc(C)nn2-c2nc(C)cc(C)n2)cc1`, the AC35 was 2.38 µM.
`Cc1ccc(NC(=S)c2nc3ccccc3[nH]2)c(C)c1` gave an AC35 of 5.34 µM.
`[O-][n+]1cccc2c(Br)cc(Br)c(O)c21` gave an AC35 of 7.13 µM.
Work on `c1ccc(-c2ccc(SCc3cccnc3)nn2)nc1` yielded an AC35 of 33.1 µM.
`CC(=O)Oc1ccc(OC(C)=O)c(SCCCCCCl)c1` was tested, and the AC35 was 4.82 µM.
Work on `c1ccc(C(=NNc2nc3ccccc3s2)c2ccccn2)cc1` yielded an AC35 of 1.5 µM.
Work on `O=P(Nc1cccnc1)(Oc1ccccc1Cl)Oc1ccccc1Cl` yielded an AC35 of 40.7 µM.
`O=C1OCC(CO)(CO)N=C1NNc1ccc(Cl)c(Cl)c1` showed an AC35 of 19.1 µM.
`O/N=C(\c1ccc(Cl)cc1)c1cc2ccccc2o1` was tested, and the AC35 was 8.56 µM.
For `Cc1cccc2sc(NNC(=O)c3ccc(S(=O)(=O)N4CCCC(C)C4)cc3)nc12` (stereo unspecified), the AC35 was 3.46 µM.
`O=C(OCC(=O)C12CC3CC(CC(C3)C1)C2)c1ccc(O)cc1` gave an AC35 of 44.4 µM.
`CCCCNc1c(-c2cccc(-c3ccc(OC)cc3)c2)nc2ccc(C)cn12` gave an AC35 of 2 µM.
With `Nc1cc2nc3ccccc3oc-2cc1=O` the AC35 was 2.14 µM.
For `C[n+]1c2cc(N)ccc2cc2ccc(N)cc21`, the AC35 was 0.0327 µM.
Work on `O=C(/C(=N/N=C/c1ccc(O)c(O)c1O)c1ccccc1)c1ccccc1` yielded an AC35 of 4.96 µM.
With `Oc1ccc(N=Nc2ccc3c(c2)OCCO3)c2cccnc12` the AC35 was 0.706 µM.
`Oc1ccc(/C=N/Nc2ccc(C(F)(F)F)cn2)c(O)c1` was tested, and the AC35 was 5.21 µM.
`COc1cc(NS(=O)(=O)c2ccc(C)cc2)c2ncccc2c1` was tested, and the AC35 was 6.47 µM.
Molecule `COc1ccc(C(=O)On2c(-c3ccc(Br)cc3)nc3ccccc3c2=O)cc1` has an AC35 of 5.71 µM.
For `O=C(Nc1nnc(SCc2ccc(F)cc2)s1)c1ccccn1`, the AC35 was 2.17 µM.
`Cc1ccc2oc(-c3ccccc3)c(C(=O)O)c(=O)c2c1` showed an AC35 of 16.2 µM.
For `O=c1c2ccccc2nc(-c2cccc(Cl)c2)n1O`, the AC35 was 25.4 µM.
`COc1cccc(/C=N/Nc2ncnc3scc(-c4ccccc4)c23)c1O` showed an AC35 of 1.91 µM.
`COc1cccc(/C=N/NC(=O)c2nc(-c3ccccc3)cc(-c3ccccc3)n2)c1O` showed an AC35 of 6.29 µM.
With `CN1CCN(C(=O)c2cc(COc3ccc(F)cc3Cl)on2)CC1c1ccccc1` (stereo unspecified) the AC35 was 38.8 µM.
In the case of `Cc1ccc(Sc2cc(C)nc(-c3ccccn3)n2)cc1`, the AC35 is reported as 3.19 µM.
`CCN(CC)C(=O)CSc1ncnc2sc(-c3ccccc3)cc12` showed an AC35 of 35.6 µM.
For `Oc1cccc2ccc(Nc3ccccn3)nc12`, the AC35 was 0.182 µM.
With `Cc1csc(NC(=O)C(C)Oc2ccc(Cl)cc2C)n1` (stereo unspecified) the AC35 was 38.3 µM.
`O=C(Oc1c(Cl)cc(Cl)c2cccnc12)c1cccs1` was tested, and the AC35 was 17.7 µM.

From PubChem BioAssay AID652047 (Broad Institute, 2013)
